Measured values from patent USRE39634E1, “Bisarylimidazoly fatty acid amide hydrolase inhibitors” (Bristol-Myers Squibb Company, priority 2001, dated 2007).
pIC50: −log10 of the molar value.

Target: T1, human FAAH (Homo sapiens, UniProt O00519)
T1 construct: expressed in transfected cells; host or cells: H4 cells stably transfected with human FAAH (Geneticin selection); crude membrane homogenates
T1 sequence (O00519 1-579): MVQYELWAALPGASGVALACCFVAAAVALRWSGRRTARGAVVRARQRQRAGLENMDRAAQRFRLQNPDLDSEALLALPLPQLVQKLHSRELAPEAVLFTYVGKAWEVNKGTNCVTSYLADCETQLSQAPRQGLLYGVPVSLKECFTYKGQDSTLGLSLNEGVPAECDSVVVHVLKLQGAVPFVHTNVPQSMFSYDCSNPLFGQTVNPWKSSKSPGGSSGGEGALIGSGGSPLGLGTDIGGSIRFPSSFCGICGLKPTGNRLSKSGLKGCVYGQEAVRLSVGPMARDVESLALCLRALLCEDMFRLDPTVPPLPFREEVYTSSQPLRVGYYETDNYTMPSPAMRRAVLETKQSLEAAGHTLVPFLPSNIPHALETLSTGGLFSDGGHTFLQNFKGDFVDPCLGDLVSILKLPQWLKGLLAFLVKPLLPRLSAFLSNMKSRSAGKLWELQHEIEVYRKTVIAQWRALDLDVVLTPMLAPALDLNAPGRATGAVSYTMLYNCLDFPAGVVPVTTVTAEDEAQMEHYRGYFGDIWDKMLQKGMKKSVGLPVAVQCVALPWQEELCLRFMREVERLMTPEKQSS
Test: Determination of FAAH activity (membrane homogenates of H4-FAAH cells, [3H]-anandamide hydrolysis)
Assay type: biochemical
Details: transfected human FAAH, H4-FAAH cell membranes, 10 μM anandamide, room temperature, one hour
Procedure: Homogenates of crude membranes were prepared from H4 cells that express transfected human FAAH (H4-FAAH cells). Briefly, cells were grown in DMEM supplemented with 10% FBS and Geneticin at a final concentration of 500 μg/ml (Gibco BRL, Rockville, Md.). Confluent cultures of H4-FAAH cells were rinsed twice with phosphate-buffered saline [138 mM NaCl, 4.1 mM KCl, 5.1 mM Na2PO4, 1.5 mM KH2PO4 (pH 7.5), 37° C.] and incubated for 5-10 min. at 4° C. in lysis buffer [1 mM sodium bicarbonate]. Cells were transferred from plates to polypropylene tubes (16×100 mm), homogenized and centrifuged at 32,000×g for 30 min. Pellets were resuspended by homogenization in lysis buffer and centrifuged at 32,000×g for 30 min. Pellets were resuspended in lysis buffer (15-20 μg protein/ml) then stored at −80° C. until needed. On the day of an experiment, membranes were diluted to 2.67 μg protein/ml in 125 mM Tris-Cl, pH 9.0
Activity of FAAH was measured using a modification of the method described by Omeir et al., 1995 (Life Sci 56:1999, 1995). Membrane homogenates (240 ng protein) were incubated at room temperature for one hour with 1.67 nM anandamide [ethanolamine 1-^3H] (American Radiolabeled Chemical Inc., St Louis, Mo.) and 10 μM anandamide (Sigma/RBI, St. Louis, Mo.) in the absence and presence of inhibitors. The reaction was stopped by the addition of 1 volume of a solution of methanol and dichloroethane (1:1). The mixture was shaken and then centrifuged at 1000×g for 15 min. to separate the aqueous and organic phases. An aliquot of the aqueous phase, containing [^3H]-ethanolamine was withdrawn and counted by scintillation spectroscopy. Data were expressed as the percentage of [^3H]-ethanolamine formed versus vehicle, after subtraction of the background radioactivity determined in the presence of 10 μM arachidonyl trifluoromethyl ketone (ATFMK), an inhibitor of FAAH. IC50 values were determined using a four-parameter logistic equation for dose-response curves.

Compound | pIC50
CCc1nc(-c2ccccc2)c(-c2ccccc2)n1CCCCCCNC(=O)OC(C)(C)C [Example 2, [6-(2-Ethyl-4,5-diphenyl-imidazol-1-yl)-hexyl]-carbamic acid tert-butyl ester] | 5.00 to 6.00
CCc1nc(-c2ccccc2)c(-c2ccccc2)n1CCCCCCNC(=O)OC(C)CC (centres unmarked) [Example 3] | 5.00 to 6.00
Cc1nc(-c2ccccc2)c(-c2ccccc2)n1CCCCCCNC(=O)OCc1ccccc1 [Example 5, [6-(2-Methyl-4,5-diphenyl-imidazol-1-yl)-hexyl]-carbamic acid benzyl ester] | 5.00 to 6.00
CC(C)=NOC(=O)NCCCCCCn1c(C)nc(-c2ccccc2)c1-c1ccccc1 [Example 6, 2-Propanone,O-[6-(2-methyl-4,5-diphenyl-1H-imidazol-1-yl)hexylaminocarbonyl]oxime] | 7.00 to 8.00
COC(=O)NCCCCCCn1c(C)nc(-c2ccccc2)c1-c1ccccc1 [Example 8, [6-(2-Methyl-4,5-diphenyl-imidazol-1-yl)-hexyl]-carbamic acid methyl ester] | 6.00 to 7.00
Cc1nc(-c2ccccc2)c(-c2ccccc2)n1CCCCCCNC(=O)Oc1ccccc1 [Example 9] | > 8.00
Cc1nc(-c2ccccc2)c(-c2ccccc2)n1CCCCCCNC(=O)Oc1ccc(F)cc1 [Example 10, [6-(2-Methyl-4,5-diphenyl-imidazol-1-yl)-hexyl]-carbamic acid 4-fluoro-phenyl ester] | > 8.00
Cc1nc(-c2ccccc2)c(-c2ccccc2)n1CCCCCCNC(=O)Oc1ccc(F)cc1F [Example 11, [6-(2-Methyl-4,5-diphenyl-imidazol-1-yl)-hexyl]-carbamic acid 2,4-difluoro-phenyl ester] | > 8.00
Cc1nc(-c2ccccc2)c(-c2ccccc2)n1CCCCCCNC(=O)Oc1ccc(Cl)cc1 [Example 12, [6-(2-Methyl-4,5-diphenyl-imidazol-1-yl)-hexyl]-carbamic acid 4-chloro-phenyl ester] | > 8.00
COc1ccc(OC(=O)NCCCCCCn2c(C)nc(-c3ccccc3)c2-c2ccccc2)cc1 [Example 13, [6-(2-Methyl-4,5-diphenyl-imidazol-1-yl)-hexyl]-carbamic acid 4-methoxy-phenyl ester] | 7.00 to 8.00
Cc1ccccc1OC(=O)NCCCCCCn1c(C)nc(-c2ccccc2)c1-c1ccccc1 [Example 14, [6-(2-Methyl-4,5-diphenyl-imidazol-1-yl)-hexyl]-carbamic acid o-tolyl ester] | > 8.00
Cc1nc(-c2ccccc2)c(-c2ccccc2)n1CCCCCCNC(=O)Oc1ccc(C#N)cc1 [Example 15, [6-(2-Methyl-4,5-diphenyl-imidazol-1-yl)-hexyl]-carbamic acid 4-cyano-phenyl ester] | 7.00 to 8.00
COc1cccc(OC)c1OC(=O)NCCCCCCn1c(C)nc(-c2ccccc2)c1-c1ccccc1 [Example 16, [6-(2-Methyl-4,5-diphenyl-imidazol-1-yl)-hexyl]-carbamic acid 2,6-dimethoxy-phenyl ester] | 6.00 to 7.00
COc1ccccc1OC(=O)NCCCCCCn1c(C)nc(-c2ccccc2)c1-c1ccccc1 [Example 17, [6-(2-Methyl-4,5-diphenyl-imidazol-1-yl)-hexyl]-carbamic acid 2-methoxy-phenyl ester] | 6.00 to 7.00
COC(=O)NCCCCCCCn1c(C)nc(-c2ccccc2)c1-c1ccccc1 [Example 18, [7-(2-Methyl-4,5-diphenyl-imidazol-1-yl)-heptyl]-carbamic acid methyl ester] | 6.00 to 7.00
CCOC(=O)NCCCCCCCn1c(C)nc(-c2ccccc2)c1-c1ccccc1 [Example 19, [7-(2-Methyl-4,5-diphenyl-imidazol-1-yl)-heptyl]-carbamic acid ethyl ester] | 7.00 to 8.00

Compound | pIC50
Cc1nc(-c2ccccc2)c(-c2ccccc2)n1CCCCCCCNC(=O)Oc1ccccc1 [Example 20, [7-(2-Methyl-4,5-diphenyl-imidazol-1-yl)-heptyl]-carbamic acid phenyl ester] | > 8.00
Cc1nc(-c2ccccc2)c(-c2ccccc2)n1CCCCCCCNC(=O)Oc1ccc(F)cc1 [Example 21, [7-(2-Methyl-4,5-diphenyl-imidazol-1-yl)-heptyl]-carbamic acid 4-fluoro-phenyl ester] | 7.00 to 8.00
Cc1nc(-c2ccccc2)c(-c2ccccc2)n1CCCCCCCNC(=O)Oc1ccccc1F [Example 22, [7-(2-Methyl-4,5-diphenyl-imidazol-1-yl)-heptyl]-carbamic acid 2-fluoro-phenyl ester] | > 8.00
Cc1nc(-c2ccccc2)c(-c2ccccc2)n1CCCCCCCNC(=O)Oc1ccc(F)cc1F [Example 23, [7-(2-Methyl-4,5-diphenyl-imidazol-1-yl)-heptyl]-carbamic acid 2,4-difluoro-phenyl ester] | 7.00 to 8.00
Cc1nc(-c2ccccc2)c(-c2ccccc2)n1CCCCCCCNC(=O)Oc1ccc(Cl)cc1 [Example 24, [7-(2-Methyl-4,5-diphenyl-imidazol-1-yl)-heptyl]-carbamic acid 4-chloro-phenyl ester] | > 8.00
COc1ccc(OC(=O)NCCCCCCCn2c(C)nc(-c3ccccc3)c2-c2ccccc2)cc1 [Example 25, [7-(2-Methyl-4,5-diphenyl-imidazol-1-yl)-heptyl]-carbamic acid 4-methoxy-phenyl ester] | 7.00 to 8.00
Cc1ccccc1OC(=O)NCCCCCCCn1c(C)nc(-c2ccccc2)c1-c1ccccc1 [Example 26, [7-(2-Methyl-4,5-diphenyl-imidazol-1-yl)-heptyl]-carbamic acid o-tolyl ester] | 7.00 to 8.00
Cc1nc(-c2ccccc2)c(-c2ccccc2)n1CCCCCCCNC(=O)Oc1ccc(C#N)cc1 [Example 27, [7-(2-Methyl-4,5-diphenyl-imidazol-1-yl)-heptyl]-carbamic acid 4-cyano-phenyl ester] | > 8.00
COc1cccc(OC)c1OC(=O)NCCCCCCCn1c(C)nc(-c2ccccc2)c1-c1ccccc1 [Example 28, [7-(2-Methyl-4,5-diphenyl-imidazol-1-yl)-heptyl]-carbamic acid 2,6-dimethoxy-phenyl ester] | 6.00 to 7.00
COc1ccccc1OC(=O)NCCCCCCCn1c(C)nc(-c2ccccc2)c1-c1ccccc1 [Example 29, [7-(2-Methyl-4,5-diphenyl-imidazol-1-yl)-heptyl]-carbamic acid 2-methoxy-phenyl ester] | 7.00 to 8.00
CCOC(=O)NCCCCCn1c(C)nc(-c2ccccc2)c1-c1ccccc1 [Example 30, [5-(2-Methyl-4,5-diphenyl-imidazol-1-yl)-pentyl]-carbamic acid ethyl ester] | 6.00 to 7.00
Cc1nc(-c2ccccc2)c(-c2ccccc2)n1CCCCCNC(=O)Oc1ccccc1 [Example 31, [5-(2-Methyl-4,5-diphenyl-imidazol-1-yl)-pentyl]-carbamic acid phenyl ester] | 7.00 to 8.00
Cc1nc(-c2ccccc2)c(-c2ccccc2)n1CCCCCNC(=O)Oc1ccc(F)cc1 [Example 32, [5-(2-Methyl-4,5-diphenyl-imidazol-1-yl)-pentyl]-carbamic acid 4-fluoro-phenyl ester] | 7.00 to 8.00
Cc1nc(-c2ccccc2)c(-c2ccccc2)n1CCCCCNC(=O)Oc1ccc(F)cc1F [Example 33, [5-(2-Methyl-4,5-diphenyl-imidazol-1-yl)-pentyl]-carbamic acid 2,4-difluoro-phenyl ester] | 7.00 to 8.00
Cc1nc(-c2ccccc2)c(-c2ccccc2)n1CCCCCNC(=O)Oc1ccccc1F [Example 34, [5-(2-Methyl-4,5-diphenyl-imidazol-1-yl)-pentyl]-carbamic acid 2-fluoro-phenyl ester] | 7.00 to 8.00
Cc1nc(-c2ccccc2)c(-c2ccccc2)n1CCCCCNC(=O)Oc1ccc(Cl)cc1 [Example 35, [5-(2-Methyl-4,5-diphenyl-imidazol-1-yl)-pentyl]-carbamic acid 4-chloro-phenyl ester] | 7.00 to 8.00
